Biological target: T1, FAAH (Rattus norvegicus, UniProt P97612)
T1 construct: Preparation of Rat Brain Membranes Preparations (FAAH Enzyme Solution); from tissue; host or cells: rat cerebrum (brain membrane preparation)
T1 sequence (P97612 1-579): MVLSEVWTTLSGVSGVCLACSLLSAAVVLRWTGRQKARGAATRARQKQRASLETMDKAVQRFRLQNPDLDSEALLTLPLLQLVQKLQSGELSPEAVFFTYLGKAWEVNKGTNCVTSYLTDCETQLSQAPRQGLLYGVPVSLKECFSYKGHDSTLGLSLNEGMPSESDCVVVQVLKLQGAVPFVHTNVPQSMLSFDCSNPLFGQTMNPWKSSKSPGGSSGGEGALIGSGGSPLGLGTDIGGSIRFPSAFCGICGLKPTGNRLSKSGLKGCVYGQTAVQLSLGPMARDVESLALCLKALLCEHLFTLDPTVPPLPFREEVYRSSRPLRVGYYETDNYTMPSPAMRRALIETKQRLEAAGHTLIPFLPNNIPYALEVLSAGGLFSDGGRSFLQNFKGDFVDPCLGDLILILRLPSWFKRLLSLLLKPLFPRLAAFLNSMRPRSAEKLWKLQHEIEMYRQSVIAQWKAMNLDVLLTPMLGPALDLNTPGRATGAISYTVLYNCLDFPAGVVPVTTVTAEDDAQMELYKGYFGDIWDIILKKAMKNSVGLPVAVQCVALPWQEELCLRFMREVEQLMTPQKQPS
Assay: Determination of FAAH inhibitory activity in rat (rat brain membrane preparations, [3H]-anandamide hydrolysis)
Format: biochemical
Conditions: rat brain membrane preparations; for inhibition at 0.1 µM: 100 nM test substance, read-out: FAAH Inhibition, Inhibition Rate at 100 nM; for IC50: test substance 0.1 nM to 1 μM, read-out: FAAH Inhibition IC50
Method in brief: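 Compounds tested from 0.1 nM to 1 μM to derive IC50 against FAAH hydrolysis in rat brain membrane preparations (100 μg/mL). A 10-min 37 °C preincubation was followed by 10 min with [3H]-anandamide (2 nM) mixed with 2 μM unlabelled anandamide. Radioactive ethanolamine was extracted into the water/methanol layer and counted.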

| Compound | inhibition at 0.1 µM [%] | IC50 [nM] |
| --- | --- | --- |
| CCOc1ccc(N2CCN(C(=O)n3c(=O)n(C)c4nc(-c5ccccc5)ncc43)CC2)cc1 [Example 131, 7-{[4-(4-Ethoxyphenyl)piperazin-1-yl]carbonyl}-9-methyl-2-phenyl-7,9-dihydro-8H-purine-8-one] | 99 | 4 |
| Cn1c(=O)n(C(=O)N2CCN(c3ccc(C#N)cc3)CC2)c2cnc(-c3ccccc3)nc21 [Example 132, 4-{4-[(9-Methyl-8-oxo-2-phenyl-8,9-dihydro-7H-purine-7-yl)carbonyl]piperazin-1-yl}benzonitrile] | 99 | 6 |
| Cn1c(=O)n(C(=O)N2CCN(c3ccc(C(F)(F)F)cc3)CC2)c2cnc(-c3ccccc3)nc21 [Example 134, 9-Methyl-2-phenyl-7-({4-[4-(trifluoromethyl)phenyl]piperazin-1-yl}carbonyl)-7,9-dihydro-8H-purine-8-one] | 96 | 7 |
| COc1cccc(-c2ncc3c(n2)n(C)c(=O)n3C(=O)N2CCN(c3ccc(F)cc3)CC2)c1 [Example 136, 7-{[4-(4-Fluorophenyl)piperazin-1-yl]carbonyl}-2-(3-methoxyphenyl)-9-methyl-7,9-dihydro-8H-purine-8-one] | 99 | 3 |
| COc1cccc(-c2ncc3c(n2)n(C)c(=O)n3C(=O)N2CCN(c3cccc(F)c3)CC2)c1 [Example 137, 7-{[4-(3-Fluorophenyl)piperazin-1-yl]carbonyl}-2-(3-methoxyphenyl)-9-methyl-7,9-dihydro-8H-purine-8-one] | 98 | 5 |
| COc1cccc(-c2ncc3c(n2)n(C)c(=O)n3C(=O)N2CCN(c3ccc(C)cc3)CC2)c1 [Example 138, 2-(3-Methoxyphenyl)-9-methyl-7-{[4-(4-methylphenyl)piperazin-1-yl]carbonyl}-7,9-dihydro-8H-purine-8-one] | 99 | 6 |
| CCOc1ccc(N2CCN(C(=O)n3c(=O)n(C)c4nc(-c5cccc(OC)c5)ncc43)CC2)cc1 [Example 141, 7-{[4-(4-Ethoxyphenyl)piperazin-1-yl]carbonyl}-2-(3-methoxyphenyl)-9-methyl-7,9-dihydro-8H-purine-8-one] | 100 | 4 |
| COc1cccc(-c2ncc3c(n2)n(C)c(=O)n3C(=O)N2CCN(c3ccc(Cl)cc3)CC2)c1 [Example 142, 7-{[4-(4-Chlorophenyl)piperazin-1-yl]carbonyl}-2-(3-methoxyphenyl)-9-methyl-7,9-dihydro-8H-purine-8-one] | 99 | 5 |
| CN(C)C(=O)n1c(=O)n(C)c2nc(-c3cccnc3)ncc21 [Example 143, N,N,9-Trimethyl-8-oxo-2-(pyridin-3-yl)-8,9-dihydro-7H-purine-7-carboxamide] | 100 | 15 |
| CCOc1ccc(N2CCN(C(=O)n3c(=O)n(C)c4nc(-c5cccnc5)ncc43)CC2)cc1 [Example 144, 7-{[4-(4-Ethoxyphenyl)piperazin-1-yl]carbonyl}-9-methyl-2-(pyridin-3-yl)-7,9-dihydro-8H-purine-8-one] | 100 | < 1 |
| CN(CCc1ccc(Cl)cc1)C(=O)n1c(=O)n(C)c2nc(-c3cccnc3)ncc21 [Example 145, N-[2-(4-Chlorophenyl)ethyl]-N,9-dimethyl-8-oxo-2-(pyridin-3-yl)-8,9-dihydro-7H-purine-7-carboxamide] | 100 | < 1 |
| CN(CCOc1ccc(Cl)cc1)C(=O)n1c(=O)n(C)c2nc(-c3cccnc3)ncc21 [Example 146, N-[2-(4-Chlorophenoxy)ethyl]-N,9-dimethyl-8-oxo-2-(pyridin-3-yl)-8,9-dihydro-7H-purine-7-carboxamide] | 99 | < 1 |

Further lines, results first:

| inhibition at 0.1 µM [%] | IC50 [nM] | Compound |
| --- | --- | --- |
| 101 | 6 | Cn1c(=O)n(C(=O)N2CCN(c3cccc(F)c3)CC2)c2cnc(-c3ccccc3)nc21 [Example 124, 7-{[4-(3-Fluorophenyl)piperazin-1-yl]carbonyl}-9-methyl-2-phenyl-7,9-dihydro-8H-purine-8-one] |
| 96 | 30 | Cn1c(=O)n(C(=O)N2CCN(c3ccccc3F)CC2)c2cnc(-c3ccccc3)nc21 [Example 125, 7-{[4-(2-Fluorophenyl)piperazin-1-yl]carbonyl}-9-methyl-2-phenyl-7,9-dihydro-8H-purine-8-one] |
| 99 | 7 | Cn1c(=O)n(C(=O)N2CCN(c3ccc(Cl)cc3)CC2)c2cnc(-c3ccccc3)nc21 [Example 126, 7-{[4-(4-Chlorophenyl)piperazin-1-yl]carbonyl}-9-methyl-2-phenyl-7,9-dihydro-8H-purine-8-one] |
| 94 | 50 | Cn1c(=O)n(C(=O)N2CCN(c3ccccc3Cl)CC2)c2cnc(-c3ccccc3)nc21 [Example 127, 7-{[4-(2-Chlorophenyl)piperazin-1-yl]carbonyl}-9-methyl-2-phenyl-7,9-dihydro-8H-purine-8-one] |
| 99 | 7 | Cc1ccc(N2CCN(C(=O)n3c(=O)n(C)c4nc(-c5ccccc5)ncc43)CC2)cc1 [Example 128, 9-Methyl-7-{[4-(4-methylphenyl)piperazin-1-yl]carbonyl}-2-phenyl-7,9-dihydro-8H-purine-8-one] |
| 98 | 7 | Cc1cccc(N2CCN(C(=O)n3c(=O)n(C)c4nc(-c5ccccc5)ncc43)CC2)c1 [Example 129, 9-Methyl-7-{[4-(3-methylphenyl)piperazin-1-yl]carbonyl}-2-phenyl-7,9-dihydro-8H-purine-8-one] |
| 94 | 42 | Cc1ccccc1N1CCN(C(=O)n2c(=O)n(C)c3nc(-c4ccccc4)ncc32)CC1 [Example 130, 9-Methyl-7-{[4-(2-methylphenyl)piperazin-1-yl]carbonyl}-2-phenyl-7,9-dihydro-8H-purine-8-one] |
| 100 | 6 | CC(=O)c1ccc(N2CCN(C(=O)n3c(=O)n(C)c4nc(-c5ccccc5)ncc43)CC2)cc1 [Example 133, 7-{[4-(4-Acetylphenyl)piperazin-1-yl]carbonyl}-9-methyl-2-phenyl-7,9-dihydro-8H-purine-8-one] |
| 99 | 5 | COc1ccc(N2CCN(C(=O)n3c(=O)n(C)c4nc(-c5ccccc5)ncc43)CC2)cc1 [Example 135, 7-{[4-(4-Methoxyphenyl)piperazin-1-yl]carbonyl}-9-methyl-2-phenyl-7,9-dihydro-8H-purine-8-one] |
| 99 | 6 | COc1cccc(-c2ncc3c(n2)n(C)c(=O)n3C(=O)N2CCN(c3cccc(C)c3)CC2)c1 [Example 139, 2-(3-Methoxyphenyl)-9-methyl-7-{[4-(3-methylphenyl)piperazin-1-yl]carbonyl}-7,9-dihydro-8H-purine-8-one] |
| 99 | 7 | COc1cccc(-c2ncc3c(n2)n(C)c(=O)n3C(=O)N2CCN(c3ccccc3)CC2)c1 [Example 140, 2-(3-Methoxyphenyl)-9-methyl-7-[(4-phenylpiperazin-1-yl)carbonyl]-7,9-dihydro-8H-purine-8-one] |

From patent US8735406B2, “8-oxodihydropurine derivative” (Dainippon Sumitomo Pharma Co., Ltd., priority 2009, dated 2014)
